The test system of one series is beta-catenin. The series can be described thus: Nuclear beta-catenin luciferase assay in TCF/LEF reporter_HEK293 cell line. Conditions: TCF/LEF reporter_HEK293, 1 μm or 10 μm, 24 hours, FIG. 1. The class given is cell-based.
Series [1] relates to mitochondrial permeability transition pore (mPTP). The series can be described thus: TMRM staining of 293T cells after CCCP-induced mPTP opening. The class given is cell-based. Conditions: 1 μM and 10 μM, CCCP 50 μM, FIG. 3.
Series [2] concerns reperfusion injury mouse model. Nature of the series: Reperfusion injury mouse model, TTC staining of infarcted heart tissue.
The subject of series [3] is reperfusion injury mouse model. The series can be described thus: Mouse myocardial necrosis in reperfusion injury model, Annexin-Vivo750 fluorescent dye. The class given is in vivo. To be noted: Annexin-Vivo750, FIG. 7B. As for the experimental part: In order to confirm the inhibitory effect of deoxycholic acid among the bile acids on myocardial necrosis caused by reperfusion injury, the test was performed to confirm mouse myocardial necrosis using Annexin-Vivo750 fluorescent dye.
After 24 hours, Annexin-Vivo750 fluorescent dye was injected into the mouse model prepared in Example 3 to examine the effect of deoxycholic acid (1, 2, 5 mg/kg (mpk)) by the concentration. Annexin dyes are known to bind where apoptosis occurs and to show fluorescence.

As for `C[C@H](CCC(=O)NCCS(=O)(=O)O)[C@H]1CC[C@H]2[C@@H]3[C@H](O)C[C@@H]4C[C@H](O)CC[C@]4(C)[C@H]3C[C@H](O)[C@]12C` [TauroCA, taurocholic acid], the “beta-catenin levels in the nucleus (luciferase activity)” value in the series with beta-catenin is given as “significantly increased”.

Take `C[C@H](CCC(=O)O)[C@H]1CC[C@H]2[C@@H]3[C@H](O)C[C@@H]4C[C@H](O)CC[C@]4(C)[C@H]3C[C@H](O)[C@]12C` [cholic acid]: the “beta-catenin levels in the nucleus (luciferase activity)” value with beta-catenin is “significantly increased”. In addition, the “inhibition of mitochondrial injury” value in series [1] is on record as “about 90%”.

In the case of `C[C@H](CCC(=O)O)[C@H]1CC[C@H]2[C@@H]3CC[C@@H]4C[C@H](O)CC[C@]4(C)[C@H]3C[C@H](O)[C@]12C` [deoxycholic acid], the “reduction of the infarcted area” value in series [2] (2 mg/kg, FIG. 6B) is given as “about 50%”. In addition, the “concentration at which cells died” value in series [2] (reperfusion injury mouse model) is on record as no less than 10 mg/kg. Moreover, in series [2] (reperfusion injury mouse model), the “concentration at which the effect was shown” value is given as no more than 2 mg/kg. Further, the “decrease of myocardial death compared to the control group with reperfusion surgery” value in series [3] (1 mpk) and in series [3] (2 mpk) was no less than 40% throughout. The “inhibition of mitochondrial injury” value in series [1] is reported as “about 90%”.

The record behind these values is patent publication US11185553B2, “Pharmaceutical composition for preventing or treating ischemic-reperfusion injury comprising bile acids” (priority 2016, dated 2021).
